The supplement of paper PMC10307832

What was measured:
Test in all cases: relative viability (nuclei count vs DMSO), 5 days (fraction); higher = more cells survive
[1] = compound: c1ccc2c(CCNc3ccc(Nc4ccncc4)cc3)c[nH]c2c1 [Serdemetan] + COc1cccc2cc(-c3nc([C@H]4CC[C@H](C(=O)O)CC4)n4ncnc(N)c34)[nH]c12 [OSI-027] (partner 0.5 µM)
Procedure, shortened: (§1)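 For relative viability, nuclei counts in treated wells were divided by those in vehicle wells. Lung cancer cell lines had been pin-tool dosed in 1536-well plates the day after seeding and cultured for 5 days, then fixed and stained in one step (final 0.05% Triton X-100, 1% formaldehyde, 1 ug/ml Hoechst) and imaged at 4×. Doses were one drug alone or a fixed anchor-drug dose plus five library-drug doses (not always all listed) in √10 steps, and values are duplicate-plate medians.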

[2] = compound: C1CC(C2=C(C1)C3=C(N2)C=CC(=C3)Cl)C(=O)N [Selisistat] + CS(=O)(=O)N1CCN(Cc2cc3nc(-c4cccc5[nH]ncc45)nc(N4CCOCC4)c3s2)CC1 [Pictilisib] (partner 1 µM)
Procedure, shortened: as §1

[3] = compound: c1ccc2c(CCNc3ccc(Nc4ccncc4)cc3)c[nH]c2c1 [Serdemetan] + NC(=O)Nc1cc(-c2cccc(F)c2)sc1C(=O)N[C@H]1CCCNC1 [AZD7762] (partner 0.2 µM)
Procedure, shortened: as §1

[4] = compound: C1CC(C2=C(C1)C3=C(N2)C=CC(=C3)Cl)C(=O)N [Selisistat] + CCNC(=O)c1noc(-c2cc(C(C)C)c(O)cc2O)c1-c1ccc(CN2CCOCC2)cc1 [Luminespib] (partner 0.01 µM)
Procedure, shortened: as §1

Row | Cell Line | relative viability ([1]; first compound 0.04 µM) | relative viability ([1]; first compound 0.1265 µM) | relative viability ([1]; first compound 0.4 µM) | relative viability ([1]; first compound 1.265 µM) | relative viability ([1]; first compound 4 µM) | relative viability ([2]; first compound 0.4 µM) | relative viability ([2]; first compound 1.265 µM) | relative viability ([2]; first compound 4 µM) | relative viability ([2]; first compound 12.65 µM) | relative viability ([2]; first compound 40 µM) | relative viability ([3]; first compound 0.04 µM) | relative viability ([3]; first compound 0.1265 µM) | relative viability ([3]; first compound 0.4 µM) | relative viability ([3]; first compound 1.265 µM) | relative viability ([3]; first compound 4 µM) | relative viability ([4]; first compound 0.4 µM) | relative viability ([4]; first compound 1.265 µM) | relative viability ([4]; first compound 4 µM) | relative viability ([4]; first compound 12.65 µM) | relative viability ([4]; first compound 40 µM)
1 | NCI-H3122 | 0.98 | 0.949 | 0.943 | 0.322 | 0.974 | 0.558 | 0.606 | 0.262 | 0.608 | 0.704 | 1 | 0.975 | 1.03 | 0.929 | 0.71 | 0.0986 | 0.102 | 0.1 | 0.115 | 0.088
2 | PC-3 [JPC-3] | 0.83 | 0.741 | 0.58 | 0.749 | 0.831 | 0.753 | 0.749 | 0.449 | 0.631 | 0.696 | 0.823 | 0.759 | 0.802 | 0.591 | 0.71 | 0.784 | 0.68 | 0.6 | 0.687 | 0.657
3 | PC-14 | 0.843 | 0.767 | 0.139 | 0.759 | 0.514 | 0.699 | 0.66 | 0.729 | 0.664 | 0.824 | 0.327 | 0.357 | 0.204 | 0.304 | 0.161 | 0.141 | 0.151 |  | 0.221 | 0.311
4 | RERF-LC-KJ | 0.589 | 0.711 | 0.442 | 0.498 | 0.401 | 0.6 | 0.436 | 0.432 | 0.471 | 0.48 | 1.03 | 0.547 | 0.806 | 0.897 | 0.94 | 1.24 | 1.02 | 1.27 | 1.09 | 0.956
